System: KRAS PDC tumor spheroids (HUVEC+MSC), viability
Assay: Anticancer human tumor 254851-301-R-J1-PDC patient-derived colon carcinoma cell line growth inhibition [KRAS2]
Settings: for viability, T/C: stronger effect = lower value; active = viability on the fitted dose curve at most 10% of control; inactive = the rest
In short: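 KRAS-mutant tumor cells were grown as spheroids with HUVEC endothelial cells and human MSCs as stroma. Targeted agents were tested alone and with KRAS pathway inhibitors. Doses started at or near clinical Cmax, or 10 microM, descending half-log.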

[1] = curve of first compound, second compound 0.1 µM
[2] = curve of first compound, second compound 0.316 µM
[3] = curve of first compound, second compound 1 µM
[4] = curve of first compound, second compound 3.16 µM
[5] = curve of first compound, second compound 10 µM
[6] = second compound 0.1 µM, first compound 0.0001 µM
[7] = second compound 0.1 µM, first compound 0.000316 µM
[8] = second compound 0.1 µM, first compound 0.001 µM
[9] = second compound 0.1 µM, first compound 0.00316 µM
[10] = second compound 0.1 µM, first compound 0.01 µM
[11] = second compound 0.1 µM, first compound 0.0316 µM
[12] = second compound 0.316 µM, first compound 0.0001 µM
[13] = second compound 0.316 µM, first compound 0.000316 µM
[14] = second compound 0.316 µM, first compound 0.001 µM
[15] = second compound 0.316 µM, first compound 0.00316 µM
[16] = second compound 0.316 µM, first compound 0.01 µM
[17] = second compound 0.316 µM, first compound 0.0316 µM
[18] = second compound 1 µM, first compound 0.0001 µM
[19] = second compound 1 µM, first compound 0.000316 µM
[20] = second compound 1 µM, first compound 0.001 µM
[21] = second compound 1 µM, first compound 0.00316 µM
[22] = second compound 1 µM, first compound 0.01 µM
[23] = second compound 1 µM, first compound 0.0316 µM
[24] = second compound 3.16 µM, first compound 0.0001 µM
[25] = second compound 3.16 µM, first compound 0.000316 µM
[26] = second compound 3.16 µM, first compound 0.001 µM
[27] = second compound 3.16 µM, first compound 0.00316 µM
[28] = second compound 3.16 µM, first compound 0.01 µM
[29] = second compound 3.16 µM, first compound 0.0316 µM
[30] = second compound 10 µM, first compound 0.0001 µM
[31] = second compound 10 µM, first compound 0.000316 µM
[32] = second compound 10 µM, first compound 0.001 µM
[33] = second compound 10 µM, first compound 0.00316 µM
[34] = second compound 10 µM, first compound 0.01 µM
[35] = second compound 10 µM, first compound 0.0316 µM
[36] = second compound 0.1 µM, first compound 0.1 µM
[37] = second compound 0.1 µM, first compound 0.316 µM
[38] = second compound 0.1 µM, first compound 1 µM
[39] = second compound 0.1 µM, first compound 3.16 µM
[40] = second compound 0.316 µM, first compound 0.1 µM
[41] = second compound 0.316 µM, first compound 0.316 µM
[42] = second compound 0.316 µM, first compound 1 µM
[43] = second compound 0.316 µM, first compound 3.16 µM
[44] = second compound 1 µM, first compound 0.1 µM
[45] = second compound 1 µM, first compound 0.316 µM
[46] = second compound 1 µM, first compound 1 µM
[47] = second compound 1 µM, first compound 3.16 µM
[48] = second compound 3.16 µM, first compound 0.1 µM
[49] = second compound 3.16 µM, first compound 0.316 µM
[50] = second compound 3.16 µM, first compound 1 µM
[51] = second compound 3.16 µM, first compound 3.16 µM
[52] = second compound 10 µM, first compound 0.1 µM
[53] = second compound 10 µM, first compound 0.316 µM
[54] = second compound 10 µM, first compound 1 µM
[55] = second compound 10 µM, first compound 3.16 µM
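Also: spheroids exposed to compounds for seven days before readout.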
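For viability, T/C in this document: 100% = DMSO vehicle control luminescence of the spheroids.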

CC(=O)Nc1cccc(-n2c(=O)n(C3CC3)c(=O)c3c(Nc4ccc(I)cc4F)n(C)c(=O)c(C)c32)c1 + C=CC(=O)N1CCN(c2nc(=O)n(-c3c(C)ccnc3C(C)C)c3nc(-c4c(O)cccc4F)c(F)cc23)C(C)C1
5.14 nM: IC50 [2]
active: viability, T/C [11] 3.31% | viability, T/C [17] 3.29% | viability, T/C [23] 3.32% | viability, T/C [29] 3.35% | viability, T/C [35] 3.11%
6.27 nM: IC50 [1]
inactive: viability, T/C [6] 104% | viability, T/C [7] 105% | viability, T/C [8] 89.5% | viability, T/C [9] 84.4% | viability, T/C [10] 27.2% | viability, T/C [12] 102% | viability, T/C [13] 103% | viability, T/C [14] 87.9% | viability, T/C [15] 77.4% | viability, T/C [16] 13% | viability, T/C [18] 102% | viability, T/C [19] 96.6% | viability, T/C [20] 93.9% | viability, T/C [21] 74.3% | viability, T/C [22] 35.5% | viability, T/C [24] 98.5% | viability, T/C [25] 99.4% | viability, T/C [26] 85.1% | viability, T/C [27] 77% | viability, T/C [28] 34% | viability, T/C [30] 105% | viability, T/C [31] 105% | viability, T/C [32] 96.9% | viability, T/C [33] 75% | viability, T/C [34] 14.6%
6.52 nM: IC50 [3]
5.08 nM: IC50 [5]
6.44 nM: IC50 [4]

Cn1ncnc1[C@H]1c2n[nH]c(=O)c3cc(F)cc(c23)N[C@@H]1c1ccc(F)cc1
> 100 nM: IC50 (curve of compound)
inactive: viability, T/C (compound 0.000316 µM) 102% [middle of 5 runs] | viability, T/C (compound 0.001 µM) 101% [middle of 5 runs] | viability, T/C (compound 0.00316 µM) 99.2% [middle of 5 runs] | viability, T/C (compound 0.01 µM) 98.7% [middle of 5 runs] | viability, T/C (compound 0.0316 µM) 101% [middle of 5 runs] | viability, T/C (compound 0.1 µM) 97.6% [middle of 5 runs]

CC1COCCN1c1cc(-c2ccnn2C)c2ccnc(-c3ccn[nH]3)c2n1 (configuration not stated) + C=CC(=O)N1CCN(c2nc(=O)n(-c3c(C)ccnc3C(C)C)c3nc(-c4c(O)cccc4F)c(F)cc23)C(C)C1
79.7 nM: IC50 [4]
186 nM: IC50 [5]
288 nM: IC50 [2]
inactive: viability, T/C [10] 112% | viability, T/C [11] 96.8% | viability, T/C [36] 65.9% | viability, T/C [37] 50% | viability, T/C [38] 35.4% | viability, T/C [39] 22% | viability, T/C [16] 96.5% | viability, T/C [17] 96.8% | viability, T/C [40] 74.2% | viability, T/C [41] 47.6% | viability, T/C [42] 32.1% | viability, T/C [43] 23.5% | viability, T/C [22] 87.6% | viability, T/C [23] 85.3% | viability, T/C [44] 66.9% | viability, T/C [45] 51.6% | viability, T/C [46] 36.7% | viability, T/C [47] 20.8% | viability, T/C [28] 74.5% | viability, T/C [29] 70.3% | viability, T/C [48] 45.2% | viability, T/C [49] 27.3% | viability, T/C [50] 29.7% | viability, T/C [51] 34.8% | viability, T/C [34] 103% | viability, T/C [35] 87.3% | viability, T/C [52] 59.5% | viability, T/C [53] 40.8% | viability, T/C [54] 29.9% | viability, T/C [55] 22.5%
369 nM: IC50 [3]
299 nM: IC50 [1]

CN(C)C/C=C/C(=O)Nc1cc2c(Nc3ccc(F)c(Cl)c3)ncnc2cc1O[C@H]1CCOC1 + CC1OCC2(CCN(c3cnc(Sc4ccnc(N)c4Cl)c(N)n3)CC2)C1N
inactive: viability, T/C [7] 105% | viability, T/C [8] 106% | viability, T/C [9] 92.8% | viability, T/C [10] 90.2% | viability, T/C [11] 84.5% | viability, T/C [36] 65.2% | viability, T/C [13] 94.5% | viability, T/C [14] 84.3% | viability, T/C [15] 82.8% | viability, T/C [16] 80.2% | viability, T/C [17] 83.4% | viability, T/C [40] 68% | viability, T/C [19] 95.9% | viability, T/C [20] 84.2% | viability, T/C [21] 88.1% | viability, T/C [22] 91.8% | viability, T/C [23] 79.8% | viability, T/C [44] 75.8% | viability, T/C [25] 67.6% | viability, T/C [26] 64.1% | viability, T/C [27] 62.8% | viability, T/C [28] 60.4% | viability, T/C [29] 59% | viability, T/C [48] 51.6% | viability, T/C [31] 85.5% | viability, T/C [32] 97.7% | viability, T/C [33] 66.9% | viability, T/C [34] 81.5% | viability, T/C [35] 51.6% | viability, T/C [52] 46.8%
> 100 nM: IC50 [1] | IC50 [2] | IC50 [3] | IC50 [4]
63.1 nM: IC50 [5]

CC(=O)Nc1cccc(-n2c(=O)n(C3CC3)c(=O)c3c(Nc4ccc(I)cc4F)n(C)c(=O)c(C)c32)c1 + CC1OCC2(CCN(c3cnc(Sc4ccnc(N)c4Cl)c(N)n3)CC2)C1N
3.45 nM: IC50 [2]
2.18 nM: IC50 [3]
0.975 nM: IC50 [4]
active: viability, T/C [11] 2.77% | viability, T/C [16] 5.84% | viability, T/C [17] 2.66% | viability, T/C [22] 3.61% | viability, T/C [23] 1.88% | viability, T/C [27] 4.29% | viability, T/C [28] 2.24% | viability, T/C [29] 1.57% | viability, T/C [32] 9.76% | viability, T/C [33] 2.21% | viability, T/C [34] 1.43% | viability, T/C [35] 1.76%
4.15 nM: IC50 [1]
inactive: viability, T/C [6] 92.1% | viability, T/C [7] 100% | viability, T/C [8] 85.7% | viability, T/C [9] 63% | viability, T/C [10] 10.8% | viability, T/C [12] 98.7% | viability, T/C [13] 82% | viability, T/C [14] 87.3% | viability, T/C [15] 53.8% | viability, T/C [18] 80.7% | viability, T/C [19] 79% | viability, T/C [20] 75% | viability, T/C [21] 38% | viability, T/C [24] 66.2% | viability, T/C [25] 74.4% | viability, T/C [26] 49.4% | viability, T/C [30] 69.1% | viability, T/C [31] 59.7%
0.395 nM: IC50 [5]

CC1COCCN1c1cc(-c2ccnn2C)c2ccnc(-c3ccn[nH]3)c2n1 (configuration not stated) + COc1cc2nc(C)nc(NC(C)c3cc(N)cc(C(F)(F)F)c3)c2cc1OC1CCOC1
inactive: viability, T/C [10] 70.2% | viability, T/C [11] 46.4% | viability, T/C [36] 32.6% | viability, T/C [37] 42.3% | viability, T/C [38] 36.8% | viability, T/C [39] 14.2% | viability, T/C [16] 99.8% | viability, T/C [17] 112% | viability, T/C [40] 81% | viability, T/C [41] 58.5% | viability, T/C [42] 31.8% | viability, T/C [43] 25% | viability, T/C [22] 103% | viability, T/C [23] 104% | viability, T/C [44] 77% | viability, T/C [45] 50.5% | viability, T/C [46] 38% | viability, T/C [47] 24% | viability, T/C [28] 80% | viability, T/C [29] 64.3% | viability, T/C [48] 56.3% | viability, T/C [49] 29.3% | viability, T/C [50] 17.9% | viability, T/C [51] 25.7% | viability, T/C [34] 99.8% | viability, T/C [35] 92% | viability, T/C [52] 51.3% | viability, T/C [53] 33.5% | viability, T/C [54] 21.8% | viability, T/C [55] 20.9%
350 nM: IC50 [3]
114 nM: IC50 [4]
37.4 nM: IC50 [1]
425 nM: IC50 [2]
120 nM: IC50 [5]

— PubChem BioAssay AID1963868 (Molecular Pharmacology Branch, DTP, NCI, 2024)
